Reference: PMC6273649, “Synthesis of Novel Quaternary Ammonium Salts and Their in Vitro Antileishmanial Activity and U-937 Cell Cytotoxicity” (Molecules, 2016)
Converted amounts (≈) assume the structure as drawn. Read-outs that look alike come from different tables or passages of the source.

What was measured:
[1] = in vitro
Protocol: (§1) U-937 promonocytes (CRL1593.2™) were obtained from the American Type Culture Collection (ATCC, Manassas, VA, USA), cultured in complete medium containing RPMI 1640 medium (Sigma) supplemented with 10% fetal bovine serum (FBS) (Gibco, Life Technologies, Grand Island, NY, USA) and 1% antibiotics (100 U/mL penicillin and 0.1 mg/mL streptomycin) (Sigma). Cells were maintained in standard conditions at 37 °C, 5% CO2 with change of medium every three days until use.
(§2) The cytotoxicity of compounds was assessed based on the viability of U-937 cells and evaluated by the MTT (3-(4,5-dimethylthiazol-2-yl)-2,5-diphenyltetrazolium bromide) method as described by others. Briefly, into each well of a 96-well cell-culture dishes 100,000 cells/100 μL were dispensed in RPMI-1640 supplemented with 10% FBS and 100 μL of the corresponding concentrations of the corresponding product. Six two fold serial dilutions were tested starting at 200 µg/mL (200, 100, 50, 25, 12.5 and 6.25 μg/mL). Cells were incubated at 37 °C with 5% CO2 for 72 h in the presence of compounds, and then the effect was determined by measuring the activity of the mitochondrial dehydrogenase by adding 10 µL/well of MTT solution (0.5 mg/mL) and incubating at 37 °C for 3 h. The reaction was stopped by adding 100 μL /well of 50% isopropanol solution with 10% sodium dodecyl sulfate for 30 min. Cell growth was determined based on the quantity of formazan produced, which was measured at 570 nm in a plate reader spectrophotometer (Bio-Rad, Hercules, CA, USA). Cells cultured in the absence of products were used as cell growth controls (negative control), while cells cultured in presence of amphotericin B (AmB, Sigma) and meglumine antimoniate (MA, Sanofi-Aventis, Bogotá, Colombia) were used as cytotoxicity controls (positive control). Each concentration was tested in triplicate in at least two independent experiments.
(§3) Cytotoxicity was determined according to the percentages of cell growth (viability) obtained for each tested compound or medium alone. Percentages of viability were calculated first using Equation (1): % Viability = (O.D. of treated cells)/(O.D. of untreated cells) × 100(1) where the O.D. of the untreated cells corresponds to 100% viability. Then, the percentage of cell growth inhibition was calculated using Equation (2): % Cell growth inhibition = 100 − % Viability(2)
(§4) The degree of cytotoxicity was established as convenient according to the LC50 values, using our own scale: high cytotoxicity: LC50 < 100 μg/mL, moderate cytotoxicity: 100 μg/mL < LC50 < 200 μg/mL; and potential non-cytotoxicity: LC50 > 200 μg/mL.

[2] = system: axenic amastigotes of L. (V) panamensis; assay: organism not typed; assay type: cell-based; conditions: for EC50 / Axenic Amastigotes EC50: 72 h, mean ± standard deviation; for degree of leishmanicidal activity, axenic amastigotes: authors' own scale by EC50
Protocol: (§5) Virulent L. (V) panamensis MHOM/CO/87/UA140 strain transfected with green fluorescent protein gene called L. (V) panamensis-pIR-eGFP was maintained by successive passaging in golden hamsters (Mesocricetus auratus). Briefly, amastigotes were aspirated from cutaneous lesions of hamsters experimentally infected with promastigotes of L. (V) panamensis-pIR-eGFP. Samples were cultured in biphasic culture with Novy-MacNeal-Nicholle (NNN) medium as solid phase and PBS plus glucose, pH 6.9 as liquid phase and incubated at 26 °C to obtain promastigotes. Medium was changed every week until 2 months.
The axenic amastigotes were obtained from promastigotes cutured in Schneider’s medium, as described elsewhere. Briefly, promastigotes of L. (V) panamensis-pIR-eGFP at 5 × 10^6 parasites/mL were cultured in Schneider medium (Sigma), pH 5.4 supplemented with 20% FBS and 1% antibiotics and incubation at 26 °C. Every three days, medium was changed and temperature was increased one degree each time until it reached 32 °C at which the transformation of the promastigotes into axenic amastigotes is achieved. After three days of growing as axenic amastigotes, parasites were ready to be used in the antileishmanial testing assay as described below.
The ability of compounds to kill axenic amastigotes of L. (V) panamensis was determined based on the viability of the parasites after exposure to each compound evaluated by the MTT method following the methodology described by others. Axenic amastigotes obtained as described above were harvested, washed, and adjusted at 2 × 10^6 parasites/mL in fresh Schneider’s medium with 20% FBS. Into each well of a 96-well plate 100 µL of parasite suspension (2 × 10^5 axenic amastigotes) were dispensed and then 100 µL of each concentration of the corresponding compound were added. […] Plates were incubated at 32 °C. After 72 h of incubation, the effect of each compound was determined by adding 10 µL/well of MTT and incubating at 32 °C for 3 h. The reaction was stopped as described above and the quantity of formazan produced was measured in a plate reader spectrophotometer (Bio-Rad) set at 570 nm. Axenic amastigotes cultivated in the absence of any compound but maintained under the same conditions were used as controls for growth and viability (negative control) while parasites cultivated in the presence of MA were used as controls for leishmanicidal activity (positive control). Assays were performed at least twice with three replicates per each concentration tested.
In turn, activity of compounds with axenic amastigotes was determined according to the reduction of parasite growth percentages obtained for each experimental condition. The percentage of parasite growth was calculated first using Equation (5): % parasite growth = (O.D. treated ax. amastigotes)/(O.D. of untreated ax. amastigotes) × 100(5) where the O.D. of the untreated axenic amastigotes corresponds to 100% parasite growth. Then, the percentage of parasite growth inhibition was calculated using Equation (6): % parasite growth inhibition = 100 − % parasite growth(6)

[3] = system: intracellular amastigotes of L. (V) panamensis-pIR-eGFP; assay: organism not typed; assay type: cell-based; conditions: for EC50: U-937, 72 h, read-out: Intracellular Amastigotes EC50; for degree of leishmanicidal activity, intracellular amastigotes: authors' own scale by EC50
Protocol: as §5
Intracellular amastigotes were obtained after infection of U-937 cells with promastigotes. Briefly, U-937 cells were dispensed in 24-well plates at a concentration of 300,000 cells/well and were treated with 1 µM of phorbol myristate acetate (PMA) (Sigma) for 48 h at 37 °C. Then, cells were infected with promastigotes in stationary growth phase (day 5) at a ratio of 1:15 cell/parasite and incubated for 3 h at 34 °C in 5% CO2. […] After 24 h of infection, cells were ready to be used in antileishmanial testing assay as described below.
The effect of compounds against intracellular amastigotes of L. (V) panamensis-pIR-eGFP was evaluated by flow cytometry using the methodology described by others. […] Infected and treated cells were maintained at 34 °C and 5% CO2 for 72 h. After 72 h, cells were washed twice with 1 mL of cold PBS and cells were removed from the bottom plate with a trypsin/EDTA ([…]) solution. Recovered cells were centrifuged at 1100 rpm for 10 min at 4 °C, the supernatant was discarded and cells were washed with 1 mL of cold PBS and centrifuged at 1100 rpm for 10 min at 4 °C. Supernatant was discarded and cells were suspended in 500 μL of PBS and analyzed by flow cytometry (FC 500MPL, Cytomics, Brea, CA, USA) using histogram analyses (Figure 2). […] Each concentration of compounds was tested in triplicate in two independent experiments.
The antileishmanial activity in intracellular amastigotes was determined according to the reduction of infected cells and parasite load (viable parasites inside infected cells) obtained for each experimental condition. The percentage of infected cell inhibition and parasite load for each concentration of each compound were calculated first using Equation (3): % infection = (% infected and treated cells ÷ % infected and untreated cells) × 100(3)
And then, the percentage of infection inhibition was calculated using Equation (4): % Inhibition = 100 − % infection(4)

[4] = system: U-937 cells; assay: in vitro; conditions: U-937 cells
Protocol: as §1, §2, §3, §4

[5] = L. (V) panamensis axenic amastigotes, MTT, read-out: Axenic Amastigotes EC50
[6] = L. (V) panamensis in U-937 cells, flow cytometry, 72 h, mean ± standard deviation
[7] = L. (V) panamensis axenic amastigotes, MTT

Compound | CC50 at 72 h [1] | EC50 [2, 5] | EC50 [3, 6] | also measured
C[N+](C)(CI)CCCC=C(c1ccccc1)c1ccccc1.[I-] [Compound 2b, N-Iodomethyl-N,N-dimethyl-N-(5,5-diphenyl-4-penten-1-yl)ammonium iodide] | 10.1 ± 0.2 µg/mL | 19.7 ± 1.5 µg/mL | 24 ± 0.7 µg/mL | –
C[N+](C)(CI)CCO [Compound 4b, N-Iodomethyl-N,N-dimethyl-N-(2-hydroxyet-1-yl)ammonium iodide] | 17.8 ± 0.2 µg/mL | 19.6 ± 1.8 µg/mL | 23.9 ± 1 µg/mL | –
C[N+](C)(C)CCO.[I-] [Compound 4c, (2-Hydroxyethyl)trimethylammonium iodide, reference compound] | 372 ± 43.1 µg/mL | – | – | EC50 ([2]; read-out: Axenic Amastigotes EC50, L. (V) panamensis axenic amastigotes, MTT, 72 h): < 50 µg/mL; Axenic Amastigotes EC50 [2, 7]: 47.2 ± 7.1 µg/mL; degree of leishmanicidal activity, axenic amastigotes [2]: moderate activity; EC50 [3]: 150 ± 17.9 µg/mL; degree of leishmanicidal activity, intracellular amastigotes [3]: almost no activity
C[N+](C)(CCl)CCO [Compound 4a, N-Choromethyl-N,N-dimethyl-N-(2-hydroxyet-1-yl)ammonium iodide] | 17.9 ± 0.02 µg/mL | 24.3 ± 1.3 µg/mL | 29.6 ± 2.8 µg/mL | degree of leishmanicidal activity, axenic amastigotes [2]: high (high leishmanicidal activity: EC50 < 25 μg/mL); degree of leishmanicidal activity, intracellular amastigotes [3]: moderate (moderate activity: 25 μg/mL < EC50 < 50 μg/mL)
C[N+](C)(C)CCCC=C(c1ccccc1)c1ccccc1.[I-] [Compound 3b, N,N,N-Trimethyl-N-(5,5-diphenylpent-4-en-1-yl)ammonium iodide] | 27.2 ± 0.7 µg/mL | 25 ± 0.5 µg/mL | 24.7 ± 1.9 µg/mL | –
C[N+](C)(CI)CCCCC=C(c1ccccc1)c1ccccc1.[I-] [Compound 2c, N-Iodomethyl-N,N-dimethyl-N-(6,6-diphenylhex-5-en-1-yl)ammonium iodide] | 9.5 ± 0.3 µg/mL | 14 ± 0.9 µg/mL | 17.6 ± 1 µg/mL | –
C[N+](C)(CCl)CCCCC=C(c1ccccc1)c1ccccc1.[I-] [Compound 1c, N-Chloromethyl-N,N-dimethyl-N-(6,6-diphenylhex-5-en-1-yl)ammonium iodide] | 21 ± 0.5 µg/mL | 40.5 ± 3.3 µg/mL | 49.4 ± 3.1 µg/mL | –
C[N+](C)(CI)CCC=C(c1ccccc1)c1ccccc1.[I-] [Compound 2a, N-Iodomethyl-N,N-dimethyl-N-(4,4-diphenylbut-3-en-1-yl)ammonium iodide] | 46 ± 5.4 µg/mL | 36.2 ± 0.1 µg/mL | 27.8 ± 3.9 µg/mL | –
C[N+](C)(C)CCC=C(c1ccccc1)c1ccccc1.[I-] [Compound 3a, N,N,N-Trimethyl-N-(4,4-diphenylbut-3-en-1-yl)ammonium iodide] | 39.2 ± 4.8 µg/mL | 25 ± 0.7 µg/mL | 30 ± 1.4 µg/mL | degree of leishmanicidal activity, axenic amastigotes [2]: high (high leishmanicidal activity: EC50 < 25 μg/mL); degree of leishmanicidal activity, intracellular amastigotes [3]: moderate (moderate activity: 25 μg/mL < EC50 < 50 μg/mL)
C[N+](C)(CCl)CCCC=C(c1ccccc1)c1ccccc1.[I-] [Compound 1b, N-Chloromethyl-N,N-dimethyl-N-(5,5-diphenylpent-4-en-1-yl)ammonium iodide] | 21 ± 2 µg/mL | 56.3 ± 3.7 µg/mL | 46.8 ± 1.2 µg/mL | –
C[C@@H]1[C@H](O)[C@@H](C)/C=C/C=C/C=C/C=C/C=C/C=C/C=C/[C@H](O[C@@H]2O[C@H](C)[C@@H](O)[C@H](N)[C@@H]2O)C[C@@H]2O[C@](O)(C[C@@H](O)C[C@@H](O)[C@H](O)CC[C@@H](O)C[C@@H](O)CC(=O)O[C@H]1C)C[C@H](O)[C@H]2C(=O)O [AmB, Amphotericin B, reference compound] | – | – | – | CC50 at 72 h ([1]; human): 28.2 ± 0.5 µg/mL (≈ 30.5 µM)
C[N+](C)(C)CCCCC=C(c1ccccc1)c1ccccc1.[I-] [Compound 3c, N,N,N-Trimethyl-N-(6,6-diphenylhex-5-en-1-yl)ammonium iodide] | 12.5 ± 0.8 µg/mL | 34.1 ± 5.1 µg/mL | 41.6 ± 2.8 µg/mL | –
meglumine antimoniate [MA, reference compound] | – | – | – | Cytotoxicity LC50 ([4]; MTT, 72 h, mean ± standard deviation): 358.2 ± 1.7 µg/mL; degree of cytotoxicity ([4]; authors' own scale by LC50): potentially non-cytotoxic; Axenic Amastigotes EC50 [2, 7]: 312.1 ± 18.6 µg/mL; degree of leishmanicidal activity, axenic amastigotes [2]: not active; Intracellular Amastigotes EC50 [3, 6]: 6.33 ± 0.86 µg/mL
C[N+](C)(CCl)CCC=C(c1ccccc1)c1ccccc1.[I-] [Compound 1a, N-Chloromethyl-N,N-dimethyl-N-(4,4-diphenylbut-3-en-1-yl)ammonium iodide] | 44.4 ± 4.9 µg/mL | 35 ± 5.7 µg/mL | 38.4 ± 0.2 µg/mL | –
